According to the NIST ThermoML archive (doi:10.1016/j.fluid.2006.01.028):

Assays:
[1] = for surface tension liquid-gas: Drop volume; for mass density: Liquid
[2] = xn = mol fraction of the nth substance listed; conditions: for surface tension liquid-gas: Drop volume; for mass density: 101 kPa, Liquid

CCCCCCO [hexan-1-ol]
[1]
Conditions	mass density [kg/m3]	surface tension liquid-gas [mN/m]
288.15 K	822.28	26.08
298.15 K	815.23	25.19
308.15 K	808	24.19

CCCCCCCCC [nonane]
[1]
Conditions	mass density [kg/m3]	surface tension liquid-gas [mN/m]
288.15 K	721.78	23.38
298.15 K	714.02	22.37
308.15 K	706.21	21.25

CCCCCCCCC [nonane] + CCCCCCO
[2]
Conditions	mass density [kg/m3]	surface tension liquid-gas [mN/m]
288.15 K, x1 = 0.05	–	25.77
288.15 K, x1 = 0.0509	815.13	–
288.15 K, x1 = 0.1003	808.46	–
288.15 K, x1 = 0.1082	–	25.47
288.15 K, x1 = 0.2028	795.35	–
288.15 K, x1 = 0.2075	–	25.06
288.15 K, x1 = 0.307	783.01	–
288.15 K, x1 = 0.3079	–	24.62
288.15 K, x1 = 0.4026	772.51	–
288.15 K, x1 = 0.4075	–	24.31
288.15 K, x1 = 0.5066	–	24.01
288.15 K, x1 = 0.5086	761.75	–
288.15 K, x1 = 0.6016	753.02	–
288.15 K, x1 = 0.6024	–	23.81
288.15 K, x1 = 0.7079	–	23.68
288.15 K, x1 = 0.708	743.74	–
288.15 K, x1 = 0.808	735.7	–
288.15 K, x1 = 0.8081	–	23.57
288.15 K, x1 = 0.9016	728.72	–
288.15 K, x1 = 0.9036	–	23.48
288.15 K, x1 = 0.9506	725.26	–
288.15 K, x1 = 0.9554	–	23.44
298.15 K, x1 = 0.0504	–	24.84
298.15 K, x1 = 0.0509	807.93	–
298.15 K, x1 = 0.1003	801.18	–
298.15 K, x1 = 0.1004	–	24.54
298.15 K, x1 = 0.2028	787.95	–
298.15 K, x1 = 0.2042	–	24.12
298.15 K, x1 = 0.2998	–	23.69
298.15 K, x1 = 0.307	775.48	–
298.15 K, x1 = 0.388	–	23.41
298.15 K, x1 = 0.4026	764.9	–
298.15 K, x1 = 0.5011	–	23.07
298.15 K, x1 = 0.5086	754.06	–
298.15 K, x1 = 0.6016	745.28	–
298.15 K, x1 = 0.606	–	22.84
298.15 K, x1 = 0.708	735.96	–
298.15 K, x1 = 0.7086	–	22.66
298.15 K, x1 = 0.808	727.88	–
298.15 K, x1 = 0.8085	–	22.56
298.15 K, x1 = 0.9007	–	22.48
298.15 K, x1 = 0.9016	720.88	–
298.15 K, x1 = 0.9506	717.44	–
298.15 K, x1 = 0.9508	–	22.39
308.15 K, x1 = 0.0509	800.64	–
308.15 K, x1 = 0.0511	–	23.81
308.15 K, x1 = 0.1003	793.82	–
308.15 K, x1 = 0.1013	–	23.52
308.15 K, x1 = 0.2028	780.43	–
308.15 K, x1 = 0.2059	–	23.08
308.15 K, x1 = 0.3066	–	22.59
308.15 K, x1 = 0.307	767.86	–
308.15 K, x1 = 0.4026	757.19	–
308.15 K, x1 = 0.404	–	22.27
308.15 K, x1 = 0.5065	–	21.98
308.15 K, x1 = 0.5086	746.28	–
308.15 K, x1 = 0.6016	737.44	–
308.15 K, x1 = 0.6028	–	21.77
308.15 K, x1 = 0.708	728.09	–
308.15 K, x1 = 0.7135	–	21.59
308.15 K, x1 = 0.8059	–	21.47
308.15 K, x1 = 0.808	719.98	–
308.15 K, x1 = 0.9016	712.97	–
308.15 K, x1 = 0.9043	–	21.34
308.15 K, x1 = 0.9506	709.52	–
308.15 K, x1 = 0.9519	–	21.27
